Among the data in ChEMBL document CHEMBL4184145, “Synthesis and structure-activity relationship of teixobactin analogues via convergent Ser ligation” (2017) are MIC values, retold here.

SMILES strings stand for the structures. ≈ marks a conversion by molar mass, not a printed value.

Assay [1] relates to Staphylococcus aureus. Put plainly: Antibacterial activity against methicillin-susceptible Staphylococcus aureus ATCC 29213 by broth dilution assay. The assay is classed as functional. Background: Broth dilution looks for growth in wells or tubes with falling amounts of substance.
The subject of assay [2] is Staphylococcus aureus. In words: Antibacterial activity against methicillin-resistant Staphylococcus aureus clinical isolate SA86 by broth dilution assay. The assay is classed as functional.

Turning to `CC[C@@H](C)[C@@H](NC(=O)[C@@H](CCC(N)=O)NC(=O)[C@H](CO)NC(=O)[C@@H](NC(=O)[C@@H](Cc1ccccc1)NC)C(C)C)C(=O)N[C@H](C(=O)N[C@@H](CO)C(=O)N[C@H]1C(=O)N[C@@H](C)C(=O)N[C@@H](CCCN)C(=O)N[C@@H]([C@@H](C)CC)C(=O)O[C@H]1C)[C@@H](C)CC`, the figures for the minimum inhibitory concentration (MIC) against Staphylococcus aureus [1] and in the assay with Staphylococcus aureus [2] were 8 µg/mL (≈ 6.73 µM) and 8 to 16 µg/mL (≈ 6.73 to 13.5 µM), respectively.

On to `CC[C@@H](C)[C@@H](NC(=O)[C@@H](CCC(N)=O)NC(=O)[C@H](CO)NC(=O)[C@H](C)NC(=O)[C@@H](Cc1ccccc1)NC)C(=O)N[C@H](C(=O)N[C@@H](CO)C(=O)N[C@H]1C(=O)N[C@@H](C)C(=O)N[C@@H](CCCN)C(=O)N[C@@H]([C@@H](C)CC)C(=O)O[C@H]1C)[C@@H](C)CC`, for which the MIC in the assay with Staphylococcus aureus [1] and against Staphylococcus aureus [2] was ≥ 32 µg/mL in each case.

For `CC[C@H](C)[C@H](NC(=O)[C@@H](Cc1ccccc1)NC)C(=O)N[C@@H](CO)C(=O)N[C@H](CCC(N)=O)C(=O)N[C@@H](C(=O)N[C@H](C(=O)N[C@@H](CO)C(=O)N[C@H]1C(=O)N[C@@H](C)C(=O)N[C@@H](CCCN)C(=O)N[C@@H]([C@@H](C)CC)C(=O)O[C@H]1C)[C@@H](C)CC)C(C)C`, the values for the MIC in the assay with Staphylococcus aureus [1] and in the assay on Staphylococcus aureus [2] were 8 to 16 µg/mL (≈ 6.73 to 13.5 µM) and 16 µg/mL (≈ 13.5 µM), respectively.

As for `CC[C@@H](C)[C@@H](NC(=O)[C@@H](CCC(N)=O)NC(=O)[C@H](CO)NC(=O)[C@@H](NC(=O)[C@@H](Cc1ccccc1)NC)[C@@H](C)CC)C(=O)N[C@H](C(=O)N[C@@H](CO)C(=O)N[C@H]1C(=O)N[C@@H](C)C(=O)N[C@@H](CCCN)C(=O)N[C@@H]([C@@H](C)CC)C(=O)O[C@H]1C)[C@@H](C)CC`, the minimal inhibitory concentration (MIC) with Staphylococcus aureus [1] and in the assay with Staphylococcus aureus [2] was 2 µg/mL (≈ 1.66 µM) in each case.

What is called MIC is the smallest concentration in the dilution series that meets the test's criterion for growth inhibition. A higher MIC goes with a need for much substance.
